In ChEMBL document CHEMBL1629468, “Synthesis and antitumor activity of novel benzimidazole-5-carboxylic acid derivatives and their transition metal complexes as topoisomerease II inhibitors” (2010) one finds GI50, RatioGI50 and Ratio data, which are given here for nine molecules.

Experiment [1] is described as follows: Growth inhibition of human gastric cancer cells after 72 hrs by sulforhodamine B assay. The class given is functional. Particulars: Cancer cell lines, Stomach, pooled result: one value given for 3 cell lines, strains, targets or settings.
Experiment [2] relates to Cancer cell lines. The experiment in a line: Ratio of compound GI50 to etoposide GI50 for human lung cancer cells. The class given is functional.
The subject of experiment [3] is Cancer cell lines. Briefly: Ratio of compound GI50 to etoposide GI50 for human colon cancer cells. The class given is functional.
In experiment [4] the test system is Cancer cell lines. Briefly: Ratio of compound GI50 to etoposide GI50 for human gastric cancer cells. In kind it is functional, Stomach.
Experiment [5] addresses DNA topoisomerase 2-alpha (Mus musculus) (UniProt Q01320). Briefly: Ratio of compound to etoposide on inhibitory effect of mouse DNA topoisomerase 2.

Bounds are passed on as bounds.

As usually defined, the GI50 is the concentration giving 50% growth inhibition. Low values mean greater sensitivity of the cells, high ones lower sensitivity of the cells.

DNA topoisomerase 2-alpha (Mus musculus), sequence (Q01320 whole entry): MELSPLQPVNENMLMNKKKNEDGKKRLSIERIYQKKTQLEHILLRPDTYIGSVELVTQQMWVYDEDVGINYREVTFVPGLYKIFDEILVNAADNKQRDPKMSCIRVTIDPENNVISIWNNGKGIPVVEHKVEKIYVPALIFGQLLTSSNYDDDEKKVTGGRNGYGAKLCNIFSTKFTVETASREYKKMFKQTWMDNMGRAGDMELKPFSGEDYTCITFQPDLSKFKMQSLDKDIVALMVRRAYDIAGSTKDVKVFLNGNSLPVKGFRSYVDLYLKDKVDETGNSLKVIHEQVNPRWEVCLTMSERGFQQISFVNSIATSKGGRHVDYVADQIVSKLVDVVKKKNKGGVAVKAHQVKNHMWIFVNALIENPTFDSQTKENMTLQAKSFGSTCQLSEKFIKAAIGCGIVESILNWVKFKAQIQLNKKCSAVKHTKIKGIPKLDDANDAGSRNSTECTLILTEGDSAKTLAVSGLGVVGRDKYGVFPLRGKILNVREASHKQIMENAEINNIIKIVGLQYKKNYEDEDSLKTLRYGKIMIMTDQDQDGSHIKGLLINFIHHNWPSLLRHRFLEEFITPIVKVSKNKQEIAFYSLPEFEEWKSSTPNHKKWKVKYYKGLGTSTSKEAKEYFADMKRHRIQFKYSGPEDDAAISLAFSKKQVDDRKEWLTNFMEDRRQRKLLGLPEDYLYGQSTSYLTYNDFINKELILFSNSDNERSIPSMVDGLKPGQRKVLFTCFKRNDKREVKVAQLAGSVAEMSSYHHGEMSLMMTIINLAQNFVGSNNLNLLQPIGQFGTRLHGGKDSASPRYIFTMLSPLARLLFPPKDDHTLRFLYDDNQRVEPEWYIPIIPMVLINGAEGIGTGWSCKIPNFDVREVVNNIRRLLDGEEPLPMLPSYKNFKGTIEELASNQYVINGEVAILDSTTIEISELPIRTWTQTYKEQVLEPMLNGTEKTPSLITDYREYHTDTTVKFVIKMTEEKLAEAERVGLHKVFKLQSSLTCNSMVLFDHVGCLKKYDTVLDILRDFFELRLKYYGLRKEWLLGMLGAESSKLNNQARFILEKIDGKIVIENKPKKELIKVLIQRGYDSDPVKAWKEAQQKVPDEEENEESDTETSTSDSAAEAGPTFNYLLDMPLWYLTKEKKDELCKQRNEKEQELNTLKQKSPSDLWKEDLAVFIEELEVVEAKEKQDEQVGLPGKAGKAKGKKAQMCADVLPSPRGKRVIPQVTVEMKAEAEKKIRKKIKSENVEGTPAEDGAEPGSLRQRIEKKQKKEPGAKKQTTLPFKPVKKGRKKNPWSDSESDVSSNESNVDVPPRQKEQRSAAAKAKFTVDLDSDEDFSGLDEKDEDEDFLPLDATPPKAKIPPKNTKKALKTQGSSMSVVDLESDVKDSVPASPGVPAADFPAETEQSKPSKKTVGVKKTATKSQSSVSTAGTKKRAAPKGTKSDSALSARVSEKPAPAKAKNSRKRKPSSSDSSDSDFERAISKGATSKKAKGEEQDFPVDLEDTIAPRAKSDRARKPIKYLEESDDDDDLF

On to `COc1cc([C@@H]2c3cc4c(cc3[C@@H](O[C@@H]3O[C@@H]5CO[C@@H](C)O[C@H]5[C@H](O)[C@H]3O)[C@H]3COC(=O)[C@H]23)OCO4)cc(OC)c1O` [ETOPOSIDE], for which the 50% growth inhibitory concentration (GI50) in experiment [1] is 1.3 µM.

Regarding `O=C(O)c1ccc2[nH]c(CNc3nccs3)nc2c1`, in experiment [1], halving of growth (GI50) required 47 µM. Regarding `CCc1c2c(nc3ccc(O)cc13)-c1cc3c(c(=O)n1C2)COC(=O)[C@]3(O)CC` [7-ETHYL-10-HYDROXYCAMPTOTHECIN], in experiment [1], it took 0.066 µM to inhibit growth by half (GI50).

Consider `O=C(O)c1ccc2[nH]c(CCl)nc2c1`, for which, in experiment [1], the GI50 is greater than 100 µM.

`O=C(O)c1ccc2[nH]c(CNc3nc4ccccc4[nH]3)nc2c1` gave a concentration for 50% growth inhibition (GI50) in experiment [1] greater than 100 µM. In experiment [1], `O=C(O)c1ccc2[nH]c(CNc3ccccn3)nc2c1` yielded a GI50 of 22 µM.

The molecule `O=C(O)c1ccc2[nH]c(C[n+]3ccccc3)nc2c1.[Cl-]` yielded a GI50 in experiment [1] of 0.095 µM. Besides, the RatioGI50 in the experiment on Cancer cell lines [2], with Cancer cell lines [3] and in the experiment on Cancer cell lines [4] was 7 in each case. Moreover, in experiment [5], the Ratio turned out to be 10. `COc1cccc2c1C(=O)c1c(O)c3c(c(O)c1C2=O)C[C@@](O)(C(=O)CO)C[C@@H]3O[C@H]1C[C@H](N)[C@H](O)[C@H](C)O1` [DOXORUBICIN] returned a concentration for 50% growth inhibition (GI50) in experiment [1] of 0.065 µM. Same read-out and setting: the figure for `O=C(O)c1ccc2[nH]c(CNc3ccncc3)nc2c1` is 17 µM.
